Experimental data from patent US8822486B2, “Spiropiperidine compounds” (Eli Lilly and Company, priority 2009, dated 2014).

Legend:
PPARγ = target: T1, PPARγ (Homo sapiens, UniProt P37231); test: PPARγ binding assay (SPA); parameters: made in house; host or cells: HEK293 (cell lysates); conditions: concentrations up to 10 μM
T1 sequence (P37231 1-505): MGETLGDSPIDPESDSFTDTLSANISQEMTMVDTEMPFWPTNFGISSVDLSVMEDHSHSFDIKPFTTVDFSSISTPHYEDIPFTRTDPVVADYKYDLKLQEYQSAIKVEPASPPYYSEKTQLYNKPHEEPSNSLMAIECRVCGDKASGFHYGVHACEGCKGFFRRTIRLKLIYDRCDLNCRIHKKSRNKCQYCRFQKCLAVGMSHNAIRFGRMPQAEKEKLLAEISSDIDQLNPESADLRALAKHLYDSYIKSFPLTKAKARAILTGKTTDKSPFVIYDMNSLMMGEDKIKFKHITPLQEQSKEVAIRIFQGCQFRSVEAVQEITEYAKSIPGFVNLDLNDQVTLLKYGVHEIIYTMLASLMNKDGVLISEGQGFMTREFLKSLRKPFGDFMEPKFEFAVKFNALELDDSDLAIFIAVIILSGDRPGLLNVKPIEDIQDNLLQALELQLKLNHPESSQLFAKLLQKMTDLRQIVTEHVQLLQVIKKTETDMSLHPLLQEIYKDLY
T1 sequence (P19793 1-462 partner): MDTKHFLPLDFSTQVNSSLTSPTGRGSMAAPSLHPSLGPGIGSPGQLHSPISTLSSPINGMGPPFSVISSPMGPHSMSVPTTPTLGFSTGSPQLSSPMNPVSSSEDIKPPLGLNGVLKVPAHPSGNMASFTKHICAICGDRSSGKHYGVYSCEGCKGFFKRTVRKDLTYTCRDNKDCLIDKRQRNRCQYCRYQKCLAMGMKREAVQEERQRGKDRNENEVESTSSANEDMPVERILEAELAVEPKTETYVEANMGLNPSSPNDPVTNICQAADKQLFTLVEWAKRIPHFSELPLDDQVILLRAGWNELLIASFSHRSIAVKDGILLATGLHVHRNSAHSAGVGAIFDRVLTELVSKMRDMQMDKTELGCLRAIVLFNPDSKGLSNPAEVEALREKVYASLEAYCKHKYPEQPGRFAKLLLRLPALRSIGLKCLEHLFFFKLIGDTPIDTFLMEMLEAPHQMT
Experimental: (§1) Because GPR40 is known to be activated by ligands to PPARγ exemplified compounds are examined in PPARα, PPARδ, and PPARγ binding and functional assays to determine the selectivity of exemplified compounds for GPR40. Compounds exemplified herein are tested essentially as described below for PPAR binding and generally have binding values greater than 1000 nM with 10 μM concentrations of test compound and are thus considered negative for PPAR activity.
(§2) Binding affinities of compounds for the PPAR α, δ, and γ receptors are assessed using Scintillation Proximity Assay (SPA) technology. Biotinylated oligonucleotide Direct Repeat 2 (DR2) is used for binding the receptors to Yttrium silicate streptavidin-coated SPA beads. […] Non-specific binding is determined in the presence of 10,000 nM of the unlabeled PPAR α/δ dual agonist reference compound for the alpha and delta receptor assays and the PPARγ agonist reference compound for the gamma receptor assay. The binding reaction (100 μl per well in a 96 well [Costar 3632] plate) is incubated for 10 h and counted disintegration per minutes (dpm) on a Wallac Microbeta. Receptor binding affinity (IC50) for the compounds is determined by fitting an 11 point concentration-response curve with a 4-paramater logistic equation. K, is determined from the IC50 using the Cheng-Prussoff equation and Kd determined by saturation binding. […]

PPARα = target: T2, PPARα (Homo sapiens, UniProt Q07869); test: PPARα binding assay (SPA); conditions: concentrations up to 10 μM
T2 construct: made in house; host or cells: HEK293 (cell lysates)
T2 sequence (Q07869 1-468): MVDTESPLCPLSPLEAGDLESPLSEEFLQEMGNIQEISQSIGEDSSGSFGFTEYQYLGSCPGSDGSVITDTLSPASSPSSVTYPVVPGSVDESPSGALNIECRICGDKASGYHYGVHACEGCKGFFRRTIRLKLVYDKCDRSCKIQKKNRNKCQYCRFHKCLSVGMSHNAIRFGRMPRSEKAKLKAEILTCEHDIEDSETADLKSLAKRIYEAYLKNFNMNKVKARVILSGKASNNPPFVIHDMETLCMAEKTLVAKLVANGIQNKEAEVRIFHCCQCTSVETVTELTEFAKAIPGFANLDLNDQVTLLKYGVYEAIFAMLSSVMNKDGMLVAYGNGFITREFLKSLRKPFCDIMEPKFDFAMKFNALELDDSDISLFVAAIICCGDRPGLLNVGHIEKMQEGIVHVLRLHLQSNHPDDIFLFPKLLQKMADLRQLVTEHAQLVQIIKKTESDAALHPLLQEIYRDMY
T2 sequence (P19793 1-462 partner): T1 sequence (P19793 1-462 partner)
Experimental: as §1, §2

CC#C[C@@H](CC(=O)O)c1ccc(OCc2ccc(CN3CCC4(C=Cc5ccccc54)CC3)s2)cc1 [Example 1, (3S)-3-[4-[[5-(Spiro[indene-1,4′-piperidine]-1′-ylmethyl)-2-thienyl]methoxy]phenyl]hex-4-ynoic acid]
PPARγ binding (PPARγ): no binding is detected
PPARα binding (PPARα): no binding is detected
